This is an account of results in patent publication US20040009126A1, “Inhalation system for prevention and treatment of intracellular infections” (priority 2002, published 2004).

For the series the following is noted: mice, intratracheal administration, lungs. The source says:
FIG. 2 is a graphical representation of the biodistribution of ciprofloxacin in the lungs upon administration of ciprofloxacin in liposomal form by inhalation and in free form by inhalation and orally.
The distribution following IT administration was compared with the distribution obtained in the lungs following an oral delivery of ciprofloxicin.

In the case of `O=C(O)c1cn(C2CC2)c2cc(N3CCNCC3)c(F)cc2c1=O` [free ciprofloxicin, ciprofloxicin], the “lung level of ciprofloxicin over time” value is listed as “negligible after one hour”.
